Measurements taken from patent US9884823B2, “Oxime ether acetate compound, preparation method therefor and weeding application thereof” (ZHEJIANG UNIVERSITY OF TECHNOLOGY, priority 2014, dated 2018).
Read-outs that look alike come from different tables or passages of the source.

Legend:
Wheat = assay: Culture dish method (general screening); type: in vivo; conditions: 100 mg/L, 7 days
From the text: (§3) Culture dish method (general screening): The test targets were radish, cucumber, rape, wheat, sorghum and barnyard grass; the seeds of wheat, sorghum and radish were germinated in advance, and the uniform emerge-germinating seeds were used in the test.

Chinese sorghum = assay: Culture dish method (general screening); type: in vivo; conditions: 100 mg/L, 7 days
From the text: as §3

Barnyardgrass = assay: Culture dish method (general screening); type: in vivo, barnyard grass; conditions: 100 mg/L, 7 days
From the text: as §3

Cucumber = assay: Culture dish method (general screening); type: in vivo; conditions: 100 mg/L, 7 days
From the text: as §3

Rape = assay: Culture dish method (general screening); type: in vivo; conditions: 100 mg/L, 7 days
From the text: as §3

Radish = assay: Culture dish method (general screening); type: in vivo; conditions: 100 mg/L, 7 days
From the text: as §3

Abutilon = assay: Potted plants live body test; type: in vivo; conditions: 150 g a.i./ha, 30 days, Table 9
From the text: (§1) The raw drug which was selected from the compounds in table 1 was weighed using an analytical balance (0.0001 g), and dissolved in DMF containing 1 wt % Tween-80 emulsifier to prepare a mother liquor of raw drug with a mass concentration of 1.0˜5.0%, and then diluted with distilled water, to prepare preparations at desired concentrations according to the ratio of ingredients in Examples 8, 9 and 10.
(§2) The test targets were mustard, small quinoa, Abutilon, amaranthus retroflexus, Eclipta prostrata, crabgrass, dog point. A pot with a diameter of 7.5 cm was used, filled with composite soil (garden soil:nursery matrix, 1:2, v/v) to ¾ of the pot, then the above […] kinds of weeds targets were directly seeded (germination rate ≧85%), covered with soil at a thickness of 0.2 cm. When the weeds grew to 3-leaf stage, pre-emergence soil treatment for weeds planting, and then spraying was performed.

Crabgrass = assay: Potted plants live body test; type: in vivo; conditions: 150 g a.i./ha, 30 days, Table 9
From the text: as §1, §2

Dog point = assay: Potted plants live body test; type: in vivo; conditions: 150 g a.i./ha, 30 days, Table 9
From the text: as §1, §2

Eclipta prostrata = assay: Potted plants live body test; type: in vivo; conditions: 150 g a.i./ha, 30 days, Table 9
From the text: as §1, §2

amaranthus retroflexus = assay: Potted plants live body test; type: in vivo; conditions: 150 g a.i./ha, 30 days, Table 9
From the text: as §1, §2

Small quinoa = conditions: 150 g a.i./ha, 30 days, Table 9
From the text: as §1, §2

[1] = system: broadleaf weeds such as mustard, small quinoa, Abutilon, Amaranthus retroflexus and Eclipta prostrate; conditions: 150 g a.i./ha; for herbicidal activity on broadleaf weeds targets: 30 days after administration, Table 9 summary; for activity on the growth of broadleaf weeds: postemergence spraying, 30 days, vs clear water control
From the text: as §1, §2

[2] = system: grass weeds such as crabgrass, barnyard grass, dog point; conditions: 150 g a.i./ha; for activity for grass targets such as crabgrass and dog point: 30 days after administration, Table 9 summary; for activity on grass weeds such as crabgrass, dog point: postemergence spraying, 30 days
From the text: as §1, §2

Mustard = conditions: 150 g a.i./ha, 30 days, Table 9

Row | SMILES | inhibition rate, Wheat Root (Wheat) | inhibition rate, Wheat Stem (Wheat) | inhibition rate, Chinese sorghum Root (Chinese sorghum) | inhibition rate, Chinese sorghum Stem (Chinese sorghum) | inhibition rate, Barnyardgrass Root (Barnyardgrass) | inhibition rate, Barnyardgrass Stem (Barnyardgrass) | inhibition rate, Cucumber Root (Cucumber) | inhibition rate, Cucumber Stem (Cucumber) | inhibition rate, Rape Root (Rape) | inhibition rate, Rape Stem (Rape) | inhibition rate, Radish Root (Radish) | inhibition rate, Radish Stem (Radish) | efficiency, Abutilon (Abutilon; Postemergence spraying) | efficiency, Abutilon (Abutilon; Pre-emergence soil treatment) | efficiency, Crabgrass (Crabgrass; Postemergence spraying) | efficiency, Crabgrass (Crabgrass; Pre-emergence soil treatment) | efficiency, Dog point (Dog point; Postemergence spraying) | efficiency, Dog point (Dog point; Pre-emergence soil treatment) | efficiency, Eclipta prostrata (Eclipta prostrata; Postemergence spraying) | efficiency, Eclipta prostrata (Eclipta prostrata; Pre-emergence soil treatment) | further results
1 | CON=C(C(=O)OC)c1ccccc1COc1cccc(-c2ccc(Cl)cn2)c1 [Compound 19] | 30% | 0% | 80% | 30% | 70% | 30% | 90% | 70% | 100% | 100% | 80% | 80% | 40% | 0% | 0% | 0% | 0% | 0% | 50% | 0% | efficiency, amaranthus retroflexus (amaranthus retroflexus; Postemergence spraying): 50%; efficiency, amaranthus retroflexus (amaranthus retroflexus; Pre-emergence soil treatment): 30%; efficiency, Small quinoa (Small quinoa; Postemergence spraying): 60%; efficiency, Small quinoa (Small quinoa; Pre-emergence soil treatment): 25%; herbicidal activity on broadleaf weeds targets [1]: herbicidal activity; activity on the growth of broadleaf weeds [1]: inhibitory activity; activity for grass targets such as crabgrass and dog point [2]: poor activity; activity on grass weeds such as crabgrass, dog point [2]: almost have no activity; efficiency, Mustard (Mustard; Postemergence spraying): 50%; efficiency, Mustard (Mustard; Pre-emergence soil treatment): 0%
2 | CON=C(C(=O)OC)c1ccccc1COc1cccc(-c2nc(Cl)c(Cl)cc2Cl)c1 [Compound 99] | 30% | 0% | 50% | 50% | 50% | 0% | 70% | 0% | 60% | 30% | 60% | 50% | 20% | 0% | 0% | 0% | 0% | 0% | 25% | 0% | efficiency, amaranthus retroflexus (amaranthus retroflexus; Postemergence spraying): 40%; efficiency, amaranthus retroflexus (amaranthus retroflexus; Pre-emergence soil treatment): 0%; efficiency, Small quinoa (Small quinoa; Postemergence spraying): 50%; efficiency, Small quinoa (Small quinoa; Pre-emergence soil treatment): 30%; herbicidal activity on broadleaf weeds targets [1]: herbicidal activity; activity on the growth of broadleaf weeds [1]: inhibitory activity; activity for grass targets such as crabgrass and dog point [2]: poor activity; activity on grass weeds such as crabgrass, dog point [2]: almost have no activity; efficiency, Mustard (Mustard; Postemergence spraying): 60%; efficiency, Mustard (Mustard; Pre-emergence soil treatment): 0%
